These results are taken from patent US12134620B2 (ARAXES PHARMA LLC, priority 2018, dated 2024).

For the assay, the target named is T1, KRAS G12C 1-169, his-tagged protein, GDP-loaded (Homo sapiens, UniProt P01116, G12C).
T1 construct: KRAS G12C 1-169, his-tagged protein, GDP-loaded; His tag
In words: Biochemical assay: covalent modification of KRAS G12C, analysed by mass spectrometry (RapidFire/TOF or Q-Exactive). The format is binding. The note with it: Modification activity, modification percentage from MS peak intensities. Here is the method: Test compounds are prepared as 10 mM stock solutions in DMSO (Fisher cat. #BP-231-100). KRAS G12C 1-169, his-tagged protein, GDP-loaded is diluted to 2 μM or 0.5 μM in buffer (20 mM Hepes, 150 mM NaCl, 1 mM MgCl2). Compounds are tested for activity as follows:
Compounds are diluted to 50× final test concentration in DMSO in 96-well storage plates. Compound stock solutions are vortexed before use and observed carefully for any sign of precipitation. Dilutions are as follow: • For 32 μM final compound concentration, compounds are diluted to 1600 μM (3 μL 10 mM compound stock+15.75 μL DMSO and mixed well by pipetting. • For 8 μM final compound concentration, compounds are diluted to 400 μM (2 μL 10 mM compound stock+48 μL DMSO) and mixed well by pipetting. 49 μL of the stock protein solution is added to each well of a 96-well PCR plate (Fisher cat #1423027). 1 μl of the diluted 50× compounds are added to appropriate wells in the PCR plate using 12-channel pipettor. Reactions are mixed carefully and thoroughly by pipetting up/down with a 200 μL multi-channel pipettor. The plate is sealed well with aluminum plate seal, and protein and compound are allowed to react for a desired amount of time. 5 μL of 2% formic acid (Fisher cat #A117) in de-ionized H2O is then added to each well followed by mixing with a pipette to quench the reaction. The plate is then resealed with aluminum seal and stored frozen on dry ice until analyzed as described below.
The above described assays are analyzed by mass spectrometry according to one of the following two procedures:
The MS instrument is set to positive polarity, 2 GHz resolution, and low mass (1700) mode and allowed to equilibrate for 30 minutes. The instrument is then calibrated, switched to acquisition mode and the appropriate method loaded.
After another 30 minute equilibration time, a blank batch (i.e., buffer) is run to ensure equipment is operating properly. The samples are thawed at 37° C. for 10 minutes, briefly centrifuged, and transfer to the bench top. Wells A1 and H12 are spiked with 1 μL 500 μM internal standard peptide, and the plates centrifuged at 2000×g for 5 minutes. The method is then run and masses of each individual well recorded.
The masses (for which integration data is desired) for each well are pasted into the platemap and exported from the analysis. Masses for the internal standards are exported as well. The data at 50 ppm is extracted for the +19 charge state, and identity of well A1 is assigned using the internal standard spike and integrated. Peak data is exported as a TOF list and the above steps are repeated individually, for the +20, +21, +22, +23, +24, and +25 charge states.
The masses and peak intensities of KRAS G12C protein species are measured using a Dionex RSLCnano system (Thermo Scientific) connected to a Q Exactive Plus mass spectrometer (Thermo Scientific).
20 μL of sample is each loaded onto a Aeris™ 3.6 μm WIDEPORE C4 200 Å, LC Column 50×2.1 mm column maintained at 40° C. at a flow rate of 600 μL/min with 80% Solvent A (0.1% formic acid in H2O) and 20% Solvent B (0.1% formic acid in acetonitrile). The liquid chromatography conditions are 20% solvent B for 1 minute, 20% to 60% solvent B for 1.5 minutes, 60% to 90% solvent for 0.5 minute, 90% solvent B for 0.2 minute, 90% to 20% solvent B for 0.2 minute, and then equilibrated for 1.6 minute before the following sample injection. The flow rate is maintained at 600 μL/min throughout the sample analysis.
The mass spectrometer is operated in profile mode at a resolution of 17500, 5 microscans, using 50 msec max injection time and an AGC target of 1×10^6, and a full mass range from 800-1850 m/z is recorded. The intact protein mode is applied for optimal ion transfer and maximum sensitivity. The ionization method is electrospray ionization, which used a spray voltage of 4 kV, sheath gas flow set to 50 AU, auxiliary gas flow set to 10 AU and sweep gas flow set to 1 AU. […]
Turning to `C=CC(=O)N1CC2(CC(=O)N(c3nc(N4CCOCC4)nc(-c4c(C)ccc5cn[nH]c45)c3C#N)C2)C1` [Compound I-176, 4-(2-acryloyl-7-oxo-2,6-diazaspiro[3.4]octan-6-yl)-6-(6-methyl-1H-indazol-7-yl)-2-morpholinopyrimidine-5-carbonitrile], the Binding % entry was “+ (+ indicates binding activity greater than 0% and up to 50%)”.

For `C=CC(=O)N1CC2(CCN(c3nc(OCc4cccc(OC)c4)nc(-c4c(C)ccc5cnn(C)c45)c3C#N)C2)C1` [Compound I-159, 4-(2-acryloyl-2,6-diazaspiro[3.4]octan-6-yl)-6-(1,6-dimethyl-1H-indazol-7-yl)-2-((3-methoxybenzyl)oxy) pyrimidine-5-carbonitrile], the Binding % entry is “++ (++ indicates binding activity from 50 to 85%)”.

For the compound `C=CC(=O)N1CC2(CCN(c3nc(OC[C@@H]4CCCN4C)cc(-c4c(C)ccc5[nH]ncc45)n3)C2)C1` [Compound I-148, (S)-1-(6-(4-(5-methyl-1H-indazol-4-yl)-6-((1-methylpyrrolidin-2-yl)methoxy)pyrimidin-2-yl)-2,6-diazaspiro[3.4]octan-2-yl)prop-2-en-1-one], the Binding % entry was “+ (+ indicates binding activity greater than 0% and up to 50%)”.

With `C=CC(=O)N1CC2(CCN(c3ccnc(-c4c(C)ccc5[nH]ncc45)c3C#N)C2)C1` [Compound I-252, 4-(2-acryloyl-2,6-diazaspiro[3.4]octan-6-yl)-2-(5-methyl-1H-indazol-4-yl)nicotinonitrile], the Binding % entry is “+ (+ indicates binding activity greater than 0% and up to 50%)”.

Turning to `C=CC(=O)N1CC2(CCN(c3nc(OC[C@H]4CCN(C)C4)nc(-c4c(C)ccc5[nH]ncc45)c3C#N)C2)C1` [Compound I-116, 4-(2-acryloyl-2,6-diazaspiro[3.4]octan-6-yl)-6-(5-methyl-1H-indazol-4-yl)-2-(((S)-1-methylpyrrolidin-3-yl)methoxy)pyrimidine-5-carbonitrile], the Binding % entry was “++ (++ indicates binding activity from 50 to 85%)”.

Regarding `C=CC(=O)N1CC2(CCN(c3nc(OCCN4CCCC4)nc(-c4c(C)ccc5[nH]ncc45)c3C#N)C2)C1` [Compound I-12, 4-(2-acryloyl-2,6-diazaspiro[3.4]octan-6-yl)-6-(5-methyl-1H-indazol-4-yl)-2-(2-(pyrrolidin-1-yl)ethoxy)pyrimidine-5-carbonitrile], the Binding % entry is reported as “++ (++ indicates binding activity from 50 to 85%)”.

Turning to `C=CC(=O)N1CC2(CCN(c3nc(OC[C@@H]4CCCN4C)nc(-c4c(C)ccc5[nH]cnc45)c3C#N)C2)C1` [Compound I-29, 4-(2-acryloyl-2,6-diazaspiro[3.4]octan-6-yl)-6-(5-methyl-1H-benzo[d]imidazol-4-yl)-2-(((S)-1-methylpyrrolidin-2-yl)methoxy)pyrimidine-5-carbonitrile], the Binding % result is “+ (+ indicates binding activity greater than 0% and up to 50%)”.

Turning to `C=CC(=O)N1CC2(CCN(c3nc(C#N)nc(-c4c(C)ccc5[nH]ncc45)c3C#N)C2)C1` [Compound I-10, 4-(2-acryloyl-2,6-diazaspiro[3.4]octan-6-yl)-6-(5-methyl-1H-indazol-4-yl)pyrimidine-2,5-dicarbonitrile], the Binding % result is given as “++ (++ indicates binding activity from 50 to 85%)”.

For `CC#CC(=O)N1CC2(CCN(c3nc(OCc4ccccn4)nc(-c4c(C)ccc5[nH]ncc45)c3C#N)C2)C1` [Compound I-99, 4-(2-(but-2-ynoyl)-2,6-diazaspiro[3.4]octan-6-yl)-6-(5-methyl-1H-indazol-4-yl)-2-(pyridin-2-ylmethoxy)pyrimidine-5-carbonitrile], the Binding % entry was “+ (+ indicates binding activity greater than 0% and up to 50%)”.

Take `C=CC(=O)N1CC2(CCN(c3nc(N4CCC5(CCN(C)C5)C4)nc(-c4c(C)ccc5[nH]ncc45)c3C#N)C2)C1` (stereo not drawn) [Compound I-77, 4-(2-acryloyl-2,6-diazaspiro[3.4]octan-6-yl)-6-(5-methyl-1H-indazol-4-yl)-2-(7-methyl-2,7-diazaspiro[4.4]nonan-2-yl)pyrimidine-5-carbonitrile]: the Binding % entry is recorded as “+++ (+++ indicates binding activity greater than 85%)”.

Take `C=CC(=O)N1CC2(CCN(c3nc(N4CCOCC4)nc(-c4c(C)ccc5[nH]ncc45)c3C#N)C2)C1` [Compound I-76, 4-(2-acryloyl-2,6-diazaspiro[3.4]octan-6-yl)-6-(5-methyl-1H-indazol-4-yl)-2-morpholinopyrimidine-5-carbonitrile]: the Binding % result is given as “++ (++ indicates binding activity from 50 to 85%)”.

As to `C=CC(=O)N1CC2(CCN(c3nc(OCc4ccc(N5CCOCC5)cn4)nc(-c4c(C)ccc5[nH]ncc45)c3C#N)C2)C1` [Compound I-153, 4-(2-acryloyl-2,6-diazaspiro[3.4]octan-6-yl)-6-(5-methyl-1H-indazol-4-yl)-2-((5-morpholinopyridin-2-yl)methoxy)pyrimidine-5-carbonitrile], the Binding % entry is on record as “++ (++ indicates binding activity from 50 to 85%)”.

In the case of `C=CC(=O)N1CC2(CCN(c3nc(N4CCC5(CCN(C)CC5)C4)nc(-c4c(C)ccc5[nH]ncc45)c3C#N)C2)C1` [Compound I-32, 4-(2-acryloyl-2,6-diazaspiro[3.4]octan-6-yl)-6-(5-methyl-1H-indazol-4-yl)-2-(8-methyl-2,8-diazaspiro[4.5]decan-2-yl)pyrimidine-5-carbonitrile], the Binding % entry is listed as “++ (++ indicates binding activity from 50 to 85%)”.

`C=CC(=O)N1CC2(CCN(c3cnc(OCCc4ccccc4)c(-c4c(C)ccc5[nH]ncc45)c3C#N)C2)C1` [Compound I-221, 5-(2-acryloyl-2,6-diazaspiro[3.4]octan-6-yl)-3-(5-methyl-1H-indazol-4-yl)-2-phenethoxyisonicoti-nonitrile]: the Binding % entry is reported as “++ (++ indicates binding activity from 50 to 85%)”.

Turning to `C=CC(=O)N1CC2(CCN(c3nc(N4CCC[C@@H](CO)C4)nc(-c4c(C)ccc5[nH]ncc45)c3C#N)C2)C1` [Compound I-212, 4-(2-acryloyl-2,6-diazaspiro[3.4]octan-6-yl)-2-((R)-3-(hydroxymethyl)piper-idin-1-yl)-6-(5-methyl-1H-indazol-4-yl)pyrimidine-5-carbontrile], the Binding % entry was “++ (++ indicates binding activity from 50 to 85%)”.

On to `C=CC(=O)N1CC2(CCN(c3c(OCCCN(C)C)ncc(-c4c(C)ccc5cnn(C)c45)c3C#N)C2)C1` [Compound I-184, 3-(2-acryloyl-2,6-diazaspiro[3.4]octan-6-yl)-5-(1,6-dimethyl-1H-indazol-7-yl)-2-(3-(dimethylamino)pro-poxy)isonicotinonitrile], for which the Binding % entry is “+ (+ indicates binding activity greater than 0% and up to 50%)”.

`C=CC(=O)N1CC2(CCN(c3cnc(Oc4ccccc4)c(-c4c(C)ccc5[nH]ncc45)c3C#N)C2)C1` [Compound I-214, 5-(2-acryloyl-2,6-diazaspiro[3.4]octan-6-yl)-3-(5-methyl-1H-indazol-4-yl)-2-phenoxyisonicotinoni-trile]: the Binding % result is on record as “++ (++ indicates binding activity from 50 to 85%)”.

With `C=CC(=O)N1CC2(CCN(c3ncnc(-c4c(C)ccc5[nH]ncc45)c3CN(C)C)C2)C1` [Compound I-258, 1-(6-(5-((dimethylamino)meth-yl)-6-(5-methyl-1H-indazol-4-yl)pyrimidin-4-yl)-2,6-diazaspiro[3.4]octan-2-yl)prop-2-en-1-one], the Binding % result is “+ (+ indicates binding activity greater than 0% and up to 50%)”.
